Tests used:
Test in all cases: Methyl transferase scintillation proximity assay
Type in all cases: biochemical
Conditions in all cases: average of two measurements; for inhibition at 10 µM: read-out: MTases Inhibition (%)
PRMT5 = target: T1, PRMT5 (Homo sapiens, UniProt O14744)
T1 construct: purchased DiscoverX BROMOscan (bromodomains); SGC in-house methyltransferase panel
Summary of the method: (§1)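 Scintillation proximity format using ^3H-SAM as methyl donor; substrate biotinylated. Levels of both near apparent Km. Activity expressed relative to compound-free (100%) and enzyme-free (0%) counts.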

PRMT9 = target: T2, PRMT9 (Homo sapiens, UniProt Q6P2P2)
T2 construct: purchased DiscoverX BROMOscan (bromodomains); SGC in-house methyltransferase panel
T2 sequence (Q6P2P2 1-845): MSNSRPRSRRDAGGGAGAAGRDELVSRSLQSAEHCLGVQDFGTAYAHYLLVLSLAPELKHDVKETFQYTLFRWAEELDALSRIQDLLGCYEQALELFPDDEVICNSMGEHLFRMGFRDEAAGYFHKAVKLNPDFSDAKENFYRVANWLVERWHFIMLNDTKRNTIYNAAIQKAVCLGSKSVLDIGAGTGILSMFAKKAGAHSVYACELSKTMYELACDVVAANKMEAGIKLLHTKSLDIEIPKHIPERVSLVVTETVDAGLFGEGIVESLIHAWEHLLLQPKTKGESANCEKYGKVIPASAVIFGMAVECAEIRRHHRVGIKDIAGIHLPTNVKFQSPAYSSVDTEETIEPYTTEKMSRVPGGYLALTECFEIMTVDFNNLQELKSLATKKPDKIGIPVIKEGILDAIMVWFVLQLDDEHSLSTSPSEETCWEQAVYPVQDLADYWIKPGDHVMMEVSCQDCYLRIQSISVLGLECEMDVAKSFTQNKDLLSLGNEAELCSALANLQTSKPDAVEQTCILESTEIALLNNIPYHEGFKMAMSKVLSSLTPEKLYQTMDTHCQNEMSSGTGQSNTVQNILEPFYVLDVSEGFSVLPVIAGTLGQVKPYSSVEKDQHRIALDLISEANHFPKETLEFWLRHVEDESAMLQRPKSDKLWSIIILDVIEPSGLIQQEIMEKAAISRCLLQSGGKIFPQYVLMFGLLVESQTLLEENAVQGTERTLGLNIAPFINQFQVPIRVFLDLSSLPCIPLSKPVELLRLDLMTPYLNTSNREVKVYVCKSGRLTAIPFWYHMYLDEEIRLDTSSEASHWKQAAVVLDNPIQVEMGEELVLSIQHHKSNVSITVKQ
Summary of the method: as §1

SMYD3 = target: T3, SMYD3 (Homo sapiens, UniProt Q9H7B4)
T3 construct: purchased DiscoverX BROMOscan (bromodomains); SGC in-house methyltransferase panel
T3 sequence (Q9H7B4 1-428): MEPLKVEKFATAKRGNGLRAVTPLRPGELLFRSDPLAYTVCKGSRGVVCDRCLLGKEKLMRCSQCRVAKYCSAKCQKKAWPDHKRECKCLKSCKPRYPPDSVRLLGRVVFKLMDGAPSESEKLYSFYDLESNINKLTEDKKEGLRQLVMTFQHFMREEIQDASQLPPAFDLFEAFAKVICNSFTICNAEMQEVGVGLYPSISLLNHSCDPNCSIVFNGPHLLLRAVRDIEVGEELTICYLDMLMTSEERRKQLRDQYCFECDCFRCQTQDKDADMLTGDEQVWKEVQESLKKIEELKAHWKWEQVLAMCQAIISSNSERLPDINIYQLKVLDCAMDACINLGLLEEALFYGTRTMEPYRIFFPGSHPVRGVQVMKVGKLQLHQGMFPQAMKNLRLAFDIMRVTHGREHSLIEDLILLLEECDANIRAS
Summary of the method: as §1

T1 sequence (O14744 whole entry): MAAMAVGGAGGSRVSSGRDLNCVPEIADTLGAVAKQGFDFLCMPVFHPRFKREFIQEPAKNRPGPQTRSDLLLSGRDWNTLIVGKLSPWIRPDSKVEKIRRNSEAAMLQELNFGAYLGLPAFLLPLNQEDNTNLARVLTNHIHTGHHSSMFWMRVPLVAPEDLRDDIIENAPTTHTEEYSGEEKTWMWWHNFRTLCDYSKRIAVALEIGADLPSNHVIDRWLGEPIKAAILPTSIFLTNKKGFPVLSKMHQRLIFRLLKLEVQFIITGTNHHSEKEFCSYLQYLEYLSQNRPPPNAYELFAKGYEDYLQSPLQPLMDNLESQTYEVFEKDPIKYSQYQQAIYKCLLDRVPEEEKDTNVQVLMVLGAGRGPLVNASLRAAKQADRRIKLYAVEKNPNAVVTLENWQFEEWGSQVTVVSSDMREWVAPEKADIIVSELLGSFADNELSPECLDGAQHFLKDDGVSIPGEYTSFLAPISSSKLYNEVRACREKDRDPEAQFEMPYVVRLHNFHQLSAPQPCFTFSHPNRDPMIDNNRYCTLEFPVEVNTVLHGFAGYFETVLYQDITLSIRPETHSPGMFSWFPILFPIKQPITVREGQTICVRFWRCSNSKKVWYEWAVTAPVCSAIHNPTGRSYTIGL
T1 sequence (Q9BQA1 whole entry partner): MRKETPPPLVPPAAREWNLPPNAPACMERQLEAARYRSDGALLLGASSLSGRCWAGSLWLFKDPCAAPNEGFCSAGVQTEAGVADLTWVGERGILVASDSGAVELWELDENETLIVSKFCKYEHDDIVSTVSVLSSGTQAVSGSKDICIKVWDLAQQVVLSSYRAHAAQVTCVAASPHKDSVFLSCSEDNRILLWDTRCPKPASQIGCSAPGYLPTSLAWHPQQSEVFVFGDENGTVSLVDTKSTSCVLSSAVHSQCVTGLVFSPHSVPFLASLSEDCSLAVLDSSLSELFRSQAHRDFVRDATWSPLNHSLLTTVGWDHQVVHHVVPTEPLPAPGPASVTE

Row | Compound | inhibition at 10 µM (PRMT5) | inhibition at 10 µM (PRMT9) | inhibition at 10 µM (SMYD3) | MTases Inhibition (%) (PRMT5; 10µM) | MTases Inhibition (%) (PRMT9; 10µM) | MTases Inhibition (%) (SMYD3; 10µM)
1 | Cc1c(NC(=O)c2cc(C(N)=O)nc3cc(F)ccc23)c(C(F)(F)F)nn1Cc1ccc(C(C)(C)C)cc1 [BAY-588] | 4% | 3% | 7% | – | – | –
2 | COc1cc(Cl)c(C(=O)N[C@@H](CN[C@H]2CC[C@@H](N)CC2)Cc2ccc(C#N)cc2)cc1-c1ccc(CN[C@H](C)c2ccc(C)cc2)o1 [BAY-850] | 4% | 15% | 6% | – | – | –
3 | Cc1c(NC(=O)c2cc(C(N)=O)nc3cc(F)ccc23)c(C(F)(F)F)nn1Cc1ccc(C#N)cc1 [BAY-876] | -1% | 12% | 3% | – | – | –
4 | CN1C[C@H](Nc2cnn(C)c(=O)c2Br)C[C@H](c2ccccc2)C1 [GSK4027] | 8% | 8% | 1% | – | – | –
5 | COc1ccccc1C(=O)Nc1cc2c(cc1N1CCNC[C@H]1C)n(C)c(=O)n2C [GSK6853] | – | – | – | 3% | 12% | 9%
6 | CO[C@H]1CNC[C@@H](OCC2CCC(F)(F)CC2)[C@@H]1Nc1ncc(-c2cncc(C)c2)c2cc(C)c(=O)[nH]c12 [GSK8814] | -2% | 3% | 8% | – | – | –
7 | Cc1nnc2c3ccccc3c(N[C@@H](C)[C@H](c3ccccc3)N(C)C)nn12 [L-Moses] | -3% | 13% | 10% | – | – | –
8 | CN(C)CCCOc1ccc(-c2cc(NCCCn3cccn3)nc(S(C)(=O)=O)n2)cc1 [TP-238] | -12% | 7% | 7% | – | – | –

Source: publication PMC6478789, “A chemical toolbox for the study of bromodomains and epigenetic signaling” (Nature Communications, 2019)
